In patent publication US9636380B2 (priority 2013, dated 2017):

Tests used:
AMPA receptor = test: Whole-cell recording of light-evoked EPSCs (LDT inputs) in DA neurons projecting to NAc lateral shell, midbrain slices; format: cell-based, mice; settings: 10 μM bath perfusion; stimulation of LDT fibers; −70 mV
Experimental: (§1) Mice were deeply anaesthetized with pentobarbital (200 mg/kg ip; Ovation Pharmaceuticals, Deerfield, Ill.). Coronal midbrain slices (250 μm) were prepared after intracardial perfusion with ice-cold artificial cerebrospinal fluid (ACSF) containing elevated sucrose (in mM): 50 sucrose, 125 NaCl, 25 NaHCO3, 2.5 KCl, 1.25 NaH2PO4, 0.1 CaCl2, 4.9 MgCl2, and 2.5 glucose (oxygenated with 95% O2/5% CO2). After 90 min of recovery, slices were transferred to a recording chamber and perfused continuously at 2-4 ml/min with oxygenated ACSF (125 NaCl, 25 NaHCO3, 2.5 KCl, 1.25 NaH2PO4, 11 glucose, 1.3 MgCl2, and 2.5 CaCl2) at ˜30° C. […]
(§2) Labeled DA neurons were visualized with a 40× water-immersion objective on an upright fluorescent microscope (BX51WI, Olympus USA) equipped with infrared-differential interference contrast (IR-DIC) video microscopy and epifluorescence (Olympus USA) for detection of retrobeads. […] A dual lamp house adapter (Olympus USA) was used to switch between fluorescence lamp and LED light source. Excitatory postsynaptic currents (EPSCs) were recorded in whole-cell voltage clamp (Multiclamp 700B, Molecular Devices, CA, USA), filtered at 2 KHz, digitized at 10 KHz (ITC-18 interface, HEKA) and collected on-line using custom Igor Pro software (Wavemetrics, Lake Oswego, Oreg., USA). […]

GABAA receptors = test: Whole-cell recording of light-evoked IPSCs (LHb inputs) in DA cells projecting to NAc lateral shell, midbrain slices; format: cell-based, mice; settings: 50 μM bath perfusion; LHb input stimulation; n=3; p<0.0001
Experimental: as §1, §2

Compound | Effect on light-evoked EPSCs in DA neurons projecting to NAc lateral shell (AMPA receptor) | Effect on light-evoked IPSCs in DA cells projecting to NAc lateral shell (GABAA receptors)
N#Cc1cc2[nH]c(=O)c(=O)[nH]c2cc1[N+](=O)[O-] [CNQX] | blocked | 
picrotoxin |  | blocked
